Among the data in ChEMBL document CHEMBL1158241, “Inhibition of hepatitis B surface antigen secretion on human hepatoma cells. Components from Rubia cordifolia” (J Nat Prod, 1996) are Activity, IC50 and CC50 values, retold here.

Structures are written as SMILES. ≈ marks a conversion by molar mass, not a printed value. Calls of active or inactive are those of the source. The calls are words filed in the database; no cut-off is given here.

Data set [1] is described as follows: Cytotoxicity against human Hep3B cells at >20 […] by MTT assay. Type of data set: cell-based. To be noted: hep 3b2. In general terms: Tetrazolium assays rely on reduction of a dye to a coloured formazan, in cell work by metabolically active cells.
For data set [2], the system named is Hepatitis B virus. Put plainly: Antiviral activity against Hepatitis B virus infected in human Hep3B cells assessed as suppression of viral surface antigen secretion after 48 hrs by enzyme immunoassay. Type of data set: functional, organism-based, Hep 3B2.
A short description of data set [3]: Cytotoxicity against human Hep3B cells by MTT assay. The format is cell-based, Hep 3B2.
In data set [4] the test system is Hepatitis B virus. As to the kind of experiment: Antiviral activity against Hepatitis B virus infected in human Hep3B cells assessed as suppression of viral surface antigen secretion at >5 […] after 48 hrs by enzyme immunoassay. Type of data set: functional, organism-based. To be noted: Hep 3B2.

One may read the IC50 as the concentration at which inhibition is half-maximal. Take `COc1c(C(=O)O)c2c(c3ccccc13)OC(C)(C)C=C2`: the Activity entry in data set [1] is listed as “Not Active”. For the same compound, the IC50 with Hepatitis B virus [2] was 4.5 µg/mL (≈ 15.8 µM).
As usually defined, the CC50 is the concentration giving 50% cytotoxicity. Low readings indicate greater toxicity to the cells, high ones lower toxicity to the cells. For the compound `COc1c(C(=O)OCCC(C)C)c2c(c3ccccc13)OC(C)(C)C=C2`, half-maximal cytotoxicity in data set [3] (CC50) was put at 10 µg/mL (≈ 28.2 µM). In addition, the 50% inhibitory concentration (IC50) in the data set on Hepatitis B virus [2] is 0.8 µg/mL (≈ 2.26 µM).
With `COC(=O)c1c2c(c3ccccc3c1OCc1ccccc1)OC(C)(C)C=C2`, the Activity result in data set [1] is “Not Active”. Also, in the data set on Hepatitis B virus [2], the IC50 was found to be 1 µg/mL (≈ 2.67 µM).
In turn, `COC(=O)c1c2c(c3ccccc3c1OC(C)=O)OC(C)(C)C=C2` [ACETYLMOLLUGIN] displayed a CC50 in data set [3] of 10 µg/mL (≈ 30.6 µM). For the same compound, the 50% inhibitory concentration (IC50) in the data set with Hepatitis B virus [2] stood at 2 µg/mL (≈ 6.13 µM).
In data set [3], `COC(=O)c1c2c(c3ccccc3c1OC)OC(C)(C)CC2` [DIHYDROMOLLUGIN METHYL ETHER] showed a 50% cytotoxic concentration (CC50) of 7 µg/mL (≈ 23.3 µM). The outcome with Hepatitis B virus [4] was inactive.
The compound `COC(=O)c1c2c(c3ccccc3c1O)OC(C)(C)CC2` [DIHYDROMOLLUGIN] returned a CC50 in data set [3] of 8.2 µg/mL (≈ 28.6 µM). The IC50 with Hepatitis B virus [2] was determined as 2 µg/mL (≈ 6.99 µM).
On the same counts, the results for `COC(=O)c1c(O)c2ccccc2c2occc12` [FUROMOLLUGIN] are 11.5 µg/mL (≈ 47.5 µM) and 2 µg/mL (≈ 8.26 µM).
On to `COC(=O)c1c(OC)c2ccccc2c2occc12` [METHYLFUROMOLLUGIN], for which the Activity result in data set [1] is “Not Active”. Besides, in the data set on Hepatitis B virus [4], the outcome was inactive.
`COC(=O)c1c(OC)c2ccccc2c2oc(=O)ccc12` [METHYLRUBILACTONE] yielded a CC50 in data set [3] of 12.5 µg/mL (≈ 44 µM). Also, the outcome with Hepatitis B virus [4] was inactive.
`COC(=O)c1c2c(c3ccccc3c1OC)OC(C)(C)C=C2` [MOLLUGIN METHYL ETHER]: in data set [1], the Activity result was “Not Active”. Further, in the data set with Hepatitis B virus [4], the result was inactive.
In the case of `COC(=O)c1c2c(c3ccccc3c1O)OC(C)(C)C=C2` [MOLLUGIN], the Activity entry in data set [1] is given as “Not Active”. Moreover, in the data set with Hepatitis B virus [2], the IC50 worked out at 2 µg/mL (≈ 7.03 µM).
Consider `COC(=O)c1c(O)c2ccccc2c2oc(=O)ccc12` [RUBILACTONE], for which the CC50 in data set [3] is 4 µg/mL (≈ 14.8 µM). For the same compound, the outcome in the data set on Hepatitis B virus [4] was inactive.
